Measured values published in PubChem BioAssay (NCI).
Values joined by “and” are separate entries in the source; they are usually repeats but may differ in a detail not shown here. Equal entries are not always repeated.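 Each compound was tested at five concentrations against cells in 96-well plates for 48 hours. At the GI50, growth is halved. At the TGI there is no net growth.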

Key:
Assay in all cases: NCI-60 cell line screen, 48 h
SF-268 CNS = system: SF-268 CNS
SF-295 CNS = system: SF-295 CNS
OVCAR-5 ovarian = system: OVCAR-5 ovarian
K-562 leukemia = system: K-562 leukemia
MDA-MB-231 breast = system: MDA-MB-231 breast
HCC-2998 colon = system: HCC-2998 colon
NCI/ADR-RES ovarian = system: NCI/ADR-RES ovarian
KM12 colon = system: KM12 colon
NCI-H23 lung = system: NCI-H23 lung

Compound	TGI (SF-268 CNS)	TGI (SF-295 CNS)	TGI (OVCAR-5 ovarian)	TGI (K-562 leukemia)	TGI (MDA-MB-231 breast)	TGI (HCC-2998 colon)	TGI (NCI/ADR-RES ovarian)	TGI (KM12 colon)	TGI (NCI-H23 lung)	GI50 (SF-268 CNS)	GI50 (SF-295 CNS)	GI50 (OVCAR-5 ovarian)	GI50 (K-562 leukemia)	GI50 (MDA-MB-231 breast)	GI50 (HCC-2998 colon)	GI50 (NCI/ADR-RES ovarian)	GI50 (KM12 colon)	GI50 (NCI-H23 lung)
COc1cc2c(cc1O)CCN(C)[C@H]2Cc1ccc(Oc2c(O)c(OC)cc3c2C[C@H]2c4c(c(OC)c(OC)c(OC)c4-3)CCN2C)cc1	11.5 µM	11.3 µM	13.2 µM	3.33 µM	9.47 µM	8.09 µM	14.1 µM	8.89 µM	12.9 µM									
O=P(O)(O)C=C=C1CCCCC1	> 100 µM	> 100 µM	> 100 µM	> 100 µM		> 100 µM	> 100 µM	> 100 µM	> 100 µM									
CC1(C)[C@@H](OC(N)=O)C=C[C@]2(CO)[C@H]3CC[C@]4(C)[C@@H](c5ccc(=O)oc5)[C@@H](Cl)C[C@]4(O)C3=CC[C@@H]12	0.00254 µM	0.0144 µM	0.0163 µM	0.0188 µM and 0.0562 µM	0.0588 µM and 0.159 µM	0.0776 µM	0.0127 µM	0.0268 µM	0.0113 µM	< 0.0001 µM	0.00268 µM	0.00426 µM	0.00354 µM and 0.0025 µM	0.017 µM and 0.0025 µM	0.0113 µM	< 0.0001 µM	0.00456 µM	< 0.0001 µM
CCOC(=O)c1c(N)sc2c1C(C(=O)OCC)CCC2 (stereo not drawn)			> 100 µM	> 100 µM	> 100 µM	> 100 µM		> 100 µM	> 100 µM									
N#Cc1c(N2CCN(c3ccc([N+](=O)[O-])cc3)CC2)[n+](=O)c2ccc(-c3ccc([N+](=O)[O-])cc3)cc2n1[O-]	> 100 µM	> 100 µM	> 100 µM	> 100 µM	> 48.6 µM	> 57.3 µM	> 100 µM	> 100 µM	> 100 µM									
NC1c2c(Cl)sc(Cl)c2C(=O)C1O (stereo not drawn)	> 100 µM	> 100 µM	> 100 µM	> 100 µM	> 100 µM	30.7 µM	90.6 µM	> 100 µM	32.5 µM									
COc1cc(C)cc2c(-c3c(O)cc(O)c4c3C[C@H](C)N[C@H]4C)cc(-c3cc(-c4c(O)cc(O)c5c4C[C@H](C)N[C@H]5C)c4cc(C)cc(OC)c4c3O)c(O)c12	> 100 µM	> 100 µM	> 100 µM	> 100 µM	> 100 µM	> 100 µM	> 100 µM	> 100 µM	> 100 µM									
O=C1/C(=C/c2ccc(O)cc2)CCC1CNc1ccccc1 (stereo not drawn)	28.2 µM	29.5 µM	31.6 µM	4 µM	30.9 µM	35.8 µM	37.1 µM	22.7 µM	30.4 µM									
COc1cccc(NC(=O)CC(=O)N2N=C(C)C(N=Nc3ccc(C(=O)O)cc3)C2=O)c1 (stereo not drawn)	> 100 µM	> 100 µM	> 100 µM	> 100 µM	> 100 µM	> 100 µM	> 100 µM	> 100 µM	> 100 µM									
O=C(O)CCSC1=NCCN1	> 100 µM	> 100 µM	> 100 µM	> 100 µM	> 100 µM	> 100 µM	> 100 µM	> 100 µM	> 100 µM									
COc1ccccc1NC(=S)N/N=C/c1ccccn1	3.59 µM	> 31.6 µM	> 46.4 µM	> 31.6 µM	> 60.1 µM	32.9 µM	0.237 µM	> 31.6 µM	6.01 µM									
COc1cccc(C23CCCC(C2)N(C)CC3OC(=O)c2ccccc2)c1OC (stereo not drawn)	> 100 µM	77.7 µM	> 100 µM	> 100 µM		78.1 µM	67.1 µM	61.3 µM	44.6 µM									
CCN(CC)/[N+]([O-])=N/O	> 100 µM	> 100 µM	> 100 µM	> 100 µM		> 100 µM		> 100 µM	> 100 µM									
Cc1ccc(/C=C2/NC(=S)SC2=O)cc1		> 100 µM	> 100 µM		83.4 µM	> 100 µM	> 100 µM	> 100 µM	64.8 µM									
O=c1c2cc(Br)ccc2ncn1COCc1ccccc1		> 100 µM	> 100 µM	> 100 µM		> 100 µM	> 1 µM	> 100 µM										
COc1cc(S(=O)(=O)Nc2ccc(-c3csc(/N=C\c4ccccc4)n3)cc2)ccc1Cl	> 100 µM	> 100 µM	> 100 µM	> 100 µM	> 100 µM		> 100 µM	> 100 µM	> 100 µM									
O=C(NCCCCCCO)c1cccc2cc3ccccc3nc12		32.8 µM	38.9 µM	> 100 µM	40 µM		> 100 µM	33.9 µM										
COC(=O)[C@@H]1C=C[C@H](NC(C)=O)C1		> 100 µM	> 100 µM	> 100 µM	> 100 µM	> 100 µM	> 100 µM	> 100 µM	> 100 µM									
O=c1oc2cccnc2n1CCCCN1CCN(c2ccccc2)CC1	> 100 µM	> 100 µM	> 100 µM	> 100 µM	> 100 µM	> 100 µM	> 100 µM		> 100 µM									
COC(=O)[C@](C)(Cc1ccccc1)NC(=O)[C@@H](C)N1[C@@H](c2ccccc2)COC1(C)C	> 100 µM	> 100 µM	> 100 µM	> 100 µM	> 100 µM		> 100 µM	> 100 µM	> 100 µM									
CC(C)(Cc1ccccc1)N1C(=O)N1C(C)(C)Cc1ccccc1	> 100 µM		83.1 µM	> 100 µM	> 100 µM	> 100 µM	> 100 µM	> 100 µM	65.5 µM									
CCN(CCCl)c1cccc(NC(=O)c2ccc(C(=O)Nc3cccc(CN(C)C)c3)cc2)c1	4.87 µM	13.2 µM	32 µM	10.9 µM		0.368 µM	> 100 µM		1.15 µM									
COc1cc2oc(=O)cc(C)c2c(OC)c1OC(C)=O	> 100 µM	> 100 µM	> 100 µM	> 100 µM	> 100 µM		> 100 µM	> 100 µM	> 100 µM									
